Reference: the supplement of paper PMC8671470

Columns and labels:
Settings in all cases: 72 h
HL-60 [1] = experiment: area under dose-response curve (viability, 1 nM-10 uM) (fraction (0-1)); higher = more sensitive
Procedure, shortened: (§1)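 Area under the curve, where listed, was derived from four-parameter log-logistic fits with drc and PharmacoGx. These fits used CellTiter-Glo viability from HL-60 cells in RPMI 1640 with 10% FBS, normalised to DMSO wells and wells holding 10 μM proteasome inhibitor. The full library was rescreened on 384-well plates in duplicate at five tenfold concentrations, 1–10,000 nM, with DMSO or 100 nM of one of three metabolic inhibitors, for 72 h at 37 °C, 5% CO2.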

HL-60 [2] = experiment: cell viability (% survival relative to DMSO control); higher = less cytotoxic
Procedure, shortened: as §1

MV4-11 [3] = tested on: MV4-11
Procedure, shortened: (§2)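 Seeded in RPMI 1640 at densities within the linear growth range, fifteen myeloid leukaemia cell lines were dispensed into 384-well plates with acoustically pre-printed compounds spanning five tenfold doses from 1 to 10,000 nM, in duplicate. The plates were kept for 72 h at 37 °C in 5% CO2 before luminescent ATP viability was measured and normalised to vehicle and to a positive control at 10 µM. Curves were fitted with a four-parameter log-logistic model. The IC50 was taken from those curves.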

HL-60 [4] = tested on: HL-60
Procedure, shortened: as §2

K-562 [5] = tested on: K-562
Procedure, shortened: as §2

KU-812 [6] = tested on: KU-812
Procedure, shortened: as §2

THP-1 [7] = tested on: THP-1
Procedure, shortened: as §2

MOLM-13 [8] = tested on: MOLM-13
Procedure, shortened: as §2

KG-1 [9] = tested on: KG-1
Procedure, shortened: as §2

LAMA-84 [10] = tested on: LAMA-84
Procedure, shortened: as §2

Mono-Mac-6 [11] = tested on: Mono-Mac-6
Procedure, shortened: as §2

BV-173 [12] = tested on: BV-173
Procedure, shortened: as §2

KCL-22 [13] = tested on: KCL-22
Procedure, shortened: as §2

HEL [14] = tested on: HEL
Procedure, shortened: as §2

SHI-1 [15] = tested on: SHI-1
Procedure, shortened: as §2

NOMO-1 [16] = tested on: NOMO-1
Procedure, shortened: as §2

ML-2 [17] = tested on: ML-2
Procedure, shortened: as §2

MV4-11 [18] = experiment: cell viability (% survival relative to DMSO control, bortezomib = 0%); higher = less cytotoxic
Procedure, shortened: (§3)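 Reported values are percent survival from duplicate wells, averaged. Fifteen myeloid leukaemia cell lines were treated in 384-well plates with compounds at 1, 10, 100, 1000 or 10000 nM for 72 h at 37 °C in 5% CO2. Signals from CellTiter-Glo luminescence were scaled with vehicle as 100% and a 10 µM positive control as 0%.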

HL-60 [19] = experiment: as above
Procedure, shortened: as §3

K-562 [20] = experiment: as above
Procedure, shortened: as §3

KU-812 [21] = experiment: as above
Procedure, shortened: as §3

THP-1 [22] = experiment: as above
Procedure, shortened: as §3

MOLM-13 [23] = experiment: as above
Procedure, shortened: as §3

KG-1 [24] = experiment: as above
Procedure, shortened: as §3

LAMA-84 [25] = experiment: as above
Procedure, shortened: as §3

Mono-Mac-6 [26] = experiment: as above
Procedure, shortened: as §3

BV-173 [27] = experiment: as above
Procedure, shortened: as §3

KCL-22 [28] = experiment: as above
Procedure, shortened: as §3

HEL [29] = experiment: as above
Procedure, shortened: as §3

SHI-1 [30] = experiment: as above
Procedure, shortened: as §3

NOMO-1 [31] = experiment: as above
Procedure, shortened: as §3

ML-2 [32] = experiment: as above
Procedure, shortened: as §3

CC(C)(O)CNc1nc(Nc2ccnc(C(F)(F)F)c2)nc(-c2cccc(C(F)(F)F)n2)n1 [AG-221]
HL-60 [1]
Settings | area under dose-response curve
co-treatment: AZD3965 100 nM | < 0.0301
co-treatment: DMSO vehicle | < 0.0301
co-treatment: GSK2194069 100 nM | < 0.0301
co-treatment: pictilisib 100 nM | < 0.0301

cell viability [%], HL-60 [2]
Settings | 0.001 µM | 0.01 µM | 0.1 µM | 1 µM | 10 µM
co-treatment: AZD3965 100 nM | 93.5 | 105 | 100 | 98.6 | 104
co-treatment: DMSO vehicle | 96.6 | 102 | 101 | 97.1 | 103
co-treatment: GSK2194069 100 nM | 85.8 | 95.9 | 100 | 89 | 94.2
co-treatment: pictilisib 100 nM | 89.3 | 104 | 102 | 94.9 | 108

CCOC(=O)c1cncn1[C@H](C)c1ccccc1 [Etomidate]
Settings | IC50 (cell viability) [µM]
BV-173 [12] | > 10
HEL [14] | > 10
HL-60 [4] | > 10
K-562 [5] | > 10
KCL-22 [13] | > 10
KG-1 [9] | > 10
KU-812 [6] | > 10
LAMA-84 [10] | > 10
ML-2 [17] | > 10
MOLM-13 [8] | > 10
MV4-11 [3] | > 10
Mono-Mac-6 [11] | > 10
NOMO-1 [16] | > 10
SHI-1 [15] | > 10
THP-1 [7] | > 10

N#Cc1ccnc(N2C(=O)CC[C@H]2C(=O)N(c2cncc(F)c2)C(C(=O)NC2CC(F)(F)C2)c2ccccc2Cl)c1 (some centres undefined) [Ivosidenib]
Settings | IC50 (cell viability) [µM]
BV-173 [12] | > 10
HEL [14] | > 10
HL-60 [4] | > 10
K-562 [5] | > 10
KCL-22 [13] | > 10
KG-1 [9] | > 10
KU-812 [6] | > 10
LAMA-84 [10] | > 10
ML-2 [17] | > 10
MOLM-13 [8] | > 10
MV4-11 [3] | > 10
Mono-Mac-6 [11] | > 10
NOMO-1 [16] | > 10
SHI-1 [15] | > 10
THP-1 [7] | > 10

cell viability [%]
Settings | 1 nM | 10 nM | 100 nM | 1000 nM | 10000 nM
BV-173 [27] | 93.2 | 95.1 | 95.8 | 104 | 92.2
HEL [29] | 89.5 | 104 | 114 | 105 | 121
HL-60 [19] | 112 | 100 | 116 | 95.3 | 92.1
K-562 [20] | 90.3 | 105 | 101 | 99.2 | 93.3
KCL-22 [28] | 92.3 | 95.3 | 110 | 99 | 93.3
KG-1 [24] | 92.4 | 105 | 106 | 98.2 | 78.2
KU-812 [21] | 92.7 | 102 | 107 | 106 | 87.4
LAMA-84 [25] | 112 | 101 | 110 | 107 | 81.4
ML-2 [32] | 107 | 85.4 | 105 | 98.1 | 92
MOLM-13 [23] | 111 | 103 | 109 | 96 | 95.1
MV4-11 [18] | 98 | 104 | 107 | 110 | 94.5
Mono-Mac-6 [26] | 97.8 | 88.9 | 108 | 90.2 | 81.5
NOMO-1 [31] | 97.8 | 95.6 | 103 | 104 | 90.8
SHI-1 [30] | 99.1 | 104 | 100 | 95.4 | 104
THP-1 [22] | 103 | 94.9 | 107 | 102 | 96
